# Article PMC3849035 (MedChemComm, 2011)
# Legend:
# VZV (OKA & 07/1) = assay: VZV plaque formation assay in HEL cells; format: cell-based, varicella-zoster virus; conditions: Human alphaherpesvirus 3, HEL, 120 h
# Parainfluenza-3 virus = assay: Inhibition of virus-induced cytopathicity, parainfluenza-3 virus in Vero cells; format: cell-based
# Reovirus-1 = assay: Inhibition of virus-induced cytopathicity, Reovirus-1 in Vero cells; format: cell-based
# HCMV and VZV = assay: organism not typed; format: cell-based; conditions: read-out: EC50's against HCMV and VZV
# several tumor cell lines = assay: Cytotoxic activity against tumor cell lines; format: cell-based
# HEL cells = conditions: microscopically visible alteration of cell morphology
# HeLa cells = conditions: microscopically visible alteration of cell morphology
# Vero cells = conditions: microscopically visible alteration of cell morphology
# MDCK cells = conditions: microscopically visible alteration of cell morphology
# HEL, HeLa, Vero, MDCK = conditions: four different cell lines (HEL, HeLa, Vero, MDCK)
# VSV = assay: microbe, parasite or virus in culture; format: cell-based; conditions: Vesicular stomatitis virus, HeLa
# RSV = assay: Inhibition of virus-induced cytopathicity, RSV in HeLa cells; format: cell-based; conditions: human respiratory syncytial virus
Compound,EC50 (VZV (OKA & 07/1)) [µM],EC50 (Parainfluenza-3 virus) [µM],EC50 (Reovirus-1) [µM],EC50 (HCMV and VZV) [µM],cytotoxic activity against several tumor cell lines (several tumor cell lines),MCC (minimal cytotoxic concentration) (HEL cells) [µM],MCC (minimal cytotoxic concentration) (HeLa cells) [µM],MCC (minimal cytotoxic concentration) (Vero cells) [µM],MCC (minimal cytotoxic concentration) (MDCK cells) [µM],"global cytotoxicity (HEL, HeLa, Vero, MDCK) [µM]",EC50 (VSV) [µM],EC50 (RSV) [µM]
"O=c1[nH]c(=O)n(C2C=CC(O)C2)cc1-c1cccs1 (stereo not shown) [1a, 1-[4′-Hydroxy-2′-cyclopenten-1′-yl]-5-(thiophene-2-yl)-uracil]",1.6 to 1.7,> 4,> 4,1.6 to 2,significant cytotoxic activity,≥4,20,20,4,4 to 20,–,–
"O=c1[nH]c(=O)n(C2C=CC(O)C2)cc1-c1ccco1 (stereo not shown) [1b, 1-[4′-Hydroxy-2′-cyclopenten-1′-yl]-5-(furan-2-yl)-uracil]",–,> 100,–,–,–,>100,>100,>100,–,–,–,–
"O=c1[nH]c(=O)n(C2C=CC(O)C2)cc1-c1cncs1 (stereo not shown) [1c, 1-[4′-Hydroxy-2′-cyclopenten-1′-yl]-5-(thiazol-5-yl)-uracil]",47 to 56,> 100,> 100,–,–,≥100,>100,>100,100,–,–,–
"NC(=O)c1ncn([C@@H]2O[C@H](CO)[C@@H](O)[C@H]2O)n1 [Ribavirin, reference compound]",–,85,> 250,–,–,–,–,–,–,–,29,10
